From patent US20110257107A1, “Compounds for Delivering Amino Acids or Peptides with Antioxidant Activity into Mitochondria” (University of Rochester, priority 2006, published 2011)
“Also recorded” adds a separate entry of the source. Read-outs that look alike come from different tables or passages of the source.

Key:
[1] = test system: spinal cord neurons; assay: H202-induced apoptosis (condensed and fragmented nuclei) in cultured spinal cord neurons; format: cell-based
Experimental: Central to the therapeutic intervention of spinal cord injury is the belief that spinal cord neurons undergo apoptosis and possibly necrosis under oxidative stress. […] In contrast, control neurons show predominantly diffuse nuclear staining. […] This percentage increased to ˜58% for 500 μM H2O2. […] In contrast, immunoreactivity to cytochrome C oxidase (COX), a marker in the inner mitochondrial membrane remained independent of the mitochondrial insults by H202. The differential staining between cytochrome C and COX affords a secondary method to assess whether a given neuron has undergone mitochondrial permeability transition (MPT).

[2] = test system: cultured neonatal rat ventricular myocytes; assay: H202-induced depolarization of mitochondrial membrane potential (TMRE) in cardiac myocytes; format: cell-based; conditions: 50 μM H202; for onset of H202-induced depolarization and loss of TMRE fluorescence: pretreatment 50 μM or 100 μM for 30 minutes
Experimental: TMRE is a lipophilic cation that partitions selectively into the negatively charged mitochondria. Neonatal cultured myocytes (6 days in culture) were loaded with 10 nM TMRE for 60 minutes at 37° C. […] As a control, myocytes were not pretreated with any drug. TMRE was excited at 555 nm and fluorescence emission was detected at 590 nm. Fluorescence images were taken every 2 minutes. At the arrow (FIG. 3), myocytes were subjected to oxidative stress by adding 50 μM H202. Plots were normalized to baseline, and are shown as F/F0, where F is the emitted fluorescence at any given time and F0 is the baseline fluorescence before addition of H202. […] The traces were drawn from the mean values of 7-10 experiments.
TMRE was used as an indicator of mitochondrial membrane potential. The myocytes were pretreated with 50 μM Mito GSH for 30 minutes and then washed to remove the antioxidant from the solution in which myocytes were suspended. In control, myocytes were not pretreated with any drug. TMRE was excited at 555 run and fluorescence emission was detected at 590 nm. Fluorescence images were taken every 2 minutes to avoid photobleaching and phototoxicity. Myocytes were subjected to oxidative stress by adding 50 μM H202.

[3] = test system: brain striatal neurons; assay: NMDA-induced depolarization of mitochondrial membrane (TMRE) in striatal neurons; format: cell-based; conditions: pretreatment 50 μm for 30 minutes; NMDA (100 μM)
Experimental: The effects of mitochondrial-targeted antioxidants upon onset of NMDA (100 μM) induced depolarization of mitochondrial membrane of brain striatal neurons are summarized in Table 1.
Tetramethylrhodamine methyl ester (TMRE) was used as an indicator of mitochondrial membrane potential. […] Control neurons were not pretreated with any drug.

[4] = test system: Rat heart mitochondria; conditions: pretreatment 5 mM for 30 minutes, 5 μM rotenone and 100 μM t-BuOOH
Experimental: Mitochondrial membrane potential was measured by safranine. Safranine is a positively charged dye that accumulates in mitochondria on establishment of an electrical potential across the mitochondrial inner membrane. However, its fluorescence is quenched by its accumulation in mitochondria in response to mitochondrial membrane potential. Rat heart mitochondria (0.2 mg protein/200 μl) were transferred to a well containing 0.3 ml of 150 mM KCl, 5 mM HEPES, 15, μM safranine, 5 mM succinate buffer, 5 μM rotenone and 100 μM t-BuOOH. The mitochondria were placed in a multiplate reader.
Fluorescence measurements were made with excitation and emission wavelengths of 485 and 585 nm, respectively.

[5] = test system: rat heart; assay: Post-ischemic recovery in Langendorff perfused rat heart; parameters: species or system Sprague-Dawley rat; conditions: 50 μM for 10 minutes prior to ischemia
Experimental: Following an equilibration period of approximately 25 minutes, global normothermic ischemia was imposed for 25 minutes, followed by reperfusion for 30 minutes.

## C=CC(O)CC(=O)O (centres unmarked) [Compound 3-HP, 3-hydroxy-4-pentenoate]
[1]; 3-HP depletion of mitochondrial glutathione prior to 250 μM H202 treatment
  percentage of cells showing condensed and fragmented nuclei: 70%

## OO [Compound H202, hydrogen peroxide]
[1]; 250 μM H202
  neurons with condensed and fragmented nuclei: ~42%
[1]; 500 μM H2O2
  neurons with condensed and fragmented nuclei: ~58%

## N[C@@H](CCC(=O)N[C@@H](CS)C(=O)NCC(=O)O)C(=O)O [Glutathione, L-γ-glutamyl-L-cysteinylglycine, reference compound]
[2]; pretreatment 100 μM non-targeted glutathione
  time for onset of H202-induced depolarization: did not significantly increase the time for onset of H202-induced depolarization

## C[N+](C)(C)CCOC(=O)CNC(=O)[C@H](CS)NC(=O)CC[C@H](N)C(=O)O.[Cl-] [Mito GSH, Glutathione choline ester chloride]
[2]; pretreatment 50 μM for 30 minutes
  time TMRE fluorescence persisted after H202 treatment: 50 min
[2]
  onset of H202-induced depolarization and loss of TMRE fluorescence: delayed onset of H202-induced depolarization and loss of TMRE fluorescence; also recorded: significantly enhanced the time for onset of H202-induced depolarization; also recorded: delay the onset of H202-induced depolarization
[2]; pretreatment 100 μM
  time for onset of H202-induced depolarization: 53 ± 3.6 min
[3]
  Time of Onset of Depolarization: 17.5 ± 2.1 min

## CC(=O)N[C@@H](CS)C(=O)OCC[N+](C)(C)C [Mito NAC, N,S-acetyl-L-cysteine choline ester]
[2]
  onset of H202-induced depolarization and loss of TMRE fluorescence: delayed onset of H202-induced depolarization and loss of fluorescence
[2]; listed as mito NAC
  onset of H202-induced depolarization and loss of TMRE fluorescence: delay the onset of H202-induced depolarization
[3]
  Time of Onset of Depolarization: 20.5 ± 3.6 min

## CC(=O)N[C@@H](CS)C(=O)OCC[N+](C)(C)C [N-acetyl cysteine choline ester, N-acetyl-L-cysteine choline ester]
[4]; listed as NAC CE
  release of intramitochondrial safranine (depolarization of mitochondrial membrane potential): minimize the depolarization of mitochondrial membrane potential

## CC(=O)N[C@@H](CS)C(=O)O [N-acetyl cysteine, N-acetyl-L-cysteine]
[5]
  onset of ischemic contracture: appeared to delay the onset of ischemic contracture
[5]; 25 minutes ischemia, 30 minutes reperfusion
  Overall recovery of left-ventricular developed pressure: 15.7%
[3]
  Time of Onset of Depolarization: 10.5 ± 1.9 min

## C[N+](C)(C)CCOC(=O)[C@@H](N)CS.[Cl-] [cysteine choline ester, [2-(2-Amino-3-mercapto-L-propionyloxy)ethyl]trimethylammonium chloride]
[4]
  release of intramitochondrial safranine (depolarization of mitochondrial membrane potential): diminished the release of intramitochondrial safaranine
[4]; listed as CYS CE
  release of intramitochondrial safranine (depolarization of mitochondrial membrane potential): minimize the depolarization of mitochondrial membrane potential
